Assay results published in ChEMBL document CHEMBL4229326, “Modulators of 14-3-3 Protein-Protein Interactions” (J Med Chem, 2018).

What was measured:
[1] = molecular target: Potassium channel subfamily K member 9 (Homo sapiens) (UniProt Q9NPC2); test: Stabilization of human HA-tagged TASK-3 interaction with 14-3-3 in Xenopus laevis oocytes assessed as increase of TASK-3 expression in plasma membrane at 10 uM by antibody-based luminometric assay relative to control; assay type: cell-based
14-3-3 protein sigma = molecular target: T1, 14-3-3 protein sigma (Homo sapiens, UniProt P31947); test: Inhibition of TMR-GG-RLSHpSSLPG-NH2 binding to recombinant human GST-tagged 14-3-3-sigma preincubated for 30 mins followed by TMR-GG-RLSHpSSLPG-NH2 addition and measured after 60 mins by fluorescence polarization assay
T1 sequence (P31947 whole entry): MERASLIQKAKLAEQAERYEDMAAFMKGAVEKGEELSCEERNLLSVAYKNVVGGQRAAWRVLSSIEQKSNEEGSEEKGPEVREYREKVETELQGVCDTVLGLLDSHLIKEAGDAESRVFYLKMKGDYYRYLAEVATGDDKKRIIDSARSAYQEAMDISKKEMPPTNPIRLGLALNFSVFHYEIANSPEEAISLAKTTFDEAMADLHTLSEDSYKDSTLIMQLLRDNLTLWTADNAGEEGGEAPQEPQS

14-3-3 protein gamma = molecular target: T2, 14-3-3 protein gamma (Homo sapiens, UniProt P61981); test: Binding affinity to GST-tagged 14-3-3-gamma (unknown origin) expressed in Escherichia coli BL21(DE3) assessed as inhibition of interaction with PRAS40 in African green monkey COS7 cells preincubated with protein followed by cell addition by ELISA
T2 sequence (P61981 whole entry): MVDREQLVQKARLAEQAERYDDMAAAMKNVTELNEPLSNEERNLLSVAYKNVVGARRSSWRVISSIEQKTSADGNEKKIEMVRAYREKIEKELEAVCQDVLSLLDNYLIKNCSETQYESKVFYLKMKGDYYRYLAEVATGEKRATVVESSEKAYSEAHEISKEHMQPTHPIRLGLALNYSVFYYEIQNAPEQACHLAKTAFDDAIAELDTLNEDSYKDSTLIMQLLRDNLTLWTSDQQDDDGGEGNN

[2] = molecular target: T3, 14-3-3 protein zeta/delta (Homo sapiens, UniProt P63104); test: Binding affinity to recombinant human His-tagged 14-3-3zeta expressed in Escherichia coli K12 by ITC method
T3 sequence (P63104 whole entry): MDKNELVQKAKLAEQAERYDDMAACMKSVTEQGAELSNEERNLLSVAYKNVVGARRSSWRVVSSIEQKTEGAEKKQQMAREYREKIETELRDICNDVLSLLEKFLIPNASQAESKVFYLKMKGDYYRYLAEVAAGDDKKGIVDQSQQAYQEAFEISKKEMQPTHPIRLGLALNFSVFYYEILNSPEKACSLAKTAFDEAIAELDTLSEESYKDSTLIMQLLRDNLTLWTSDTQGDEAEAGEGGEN

DG-75 = test: Growth inhibition of human DG75 cells after 48 hrs by trypan blue exclusion method; assay type: functional, cell-based; conditions: DG-75, 48 h
[3] = molecular target: T3, 14-3-3 protein zeta/delta; test: Binding affinity to human full length 14-3-3zeta by fluorescence polarization assay

Chain of Potassium channel subfamily K member 9 (Homo sapiens) (Q9NPC2 whole entry): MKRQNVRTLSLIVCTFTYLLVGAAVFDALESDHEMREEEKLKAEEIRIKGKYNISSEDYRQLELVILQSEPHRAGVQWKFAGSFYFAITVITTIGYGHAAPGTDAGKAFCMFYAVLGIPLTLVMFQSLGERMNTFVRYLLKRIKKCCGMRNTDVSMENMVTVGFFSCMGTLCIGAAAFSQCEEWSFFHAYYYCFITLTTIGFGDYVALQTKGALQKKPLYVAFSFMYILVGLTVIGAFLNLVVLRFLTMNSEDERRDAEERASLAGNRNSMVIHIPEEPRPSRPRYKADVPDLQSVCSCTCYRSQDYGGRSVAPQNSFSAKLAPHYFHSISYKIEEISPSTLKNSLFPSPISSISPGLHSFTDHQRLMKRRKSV

IC50 (14-3-3 protein sigma)	SMILES	other results
–	COC[C@H]1CC[C@@H]2/C1=C\[C@]1(C)C(=C(C(C)C)[C@@H]3CCO[C@@H]31)[C@@H](O[C@H]1C[C@@H]3COC(C)(C)O[C@H]3[C@H](O)[C@H]1O)[C@H](O)[C@@H]2C	Activity [1]: 45%
2.6 to 3.6 µM	[N-]=[N+]=Nc1ccc(C(=O)NCC(=O)N[C@@H](COP(=O)(O)O)C(=O)NCCc2ccc(O)cc2)cc1	–
–	Cc1nc(/N=N/c2ccc(C(=O)O)cc2)c(COP(=O)(O)O)c(C=O)c1O	IC50 (14-3-3 protein gamma): 16.4 µM
2.6 to 3.6 µM	O=C(CNC(=O)c1ccc(CCl)cc1)N[C@@H](COP(=O)(O)O)C(=O)NCCc1ccc(O)cc1	–
2.6 to 3.6 µM	O=C(CNC(=O)c1ccc(CCl)cc1)N[C@@H](COP(=O)(O)O)C(=O)NCc1ccc2c(c1)OCO2	–
2.6 to 3.6 µM	CC(C)=CC(=O)N[C@@H](COP(=O)(O)O)C(=O)NCc1ccc2c(c1)OCO2	–
2.6 to 3.6 µM	CC(C)=CC(=O)N[C@@H](COP(=O)(O)O)C(=O)NCCc1ccc(O)cc1	–
–	COC[C@H]1CC[C@@H]2/C1=C\[C@]1(C)C(=C([C@H](C)COC(C)=O)CC1OCc1ccccc1/C=N/OC[C@@H](NC(=O)[C@H](CC(=O)O)NC(=O)[C@H](Cc1ccc(O)cc1)NC(=O)[C@H](CO)NC(=O)[C@H](CCC(N)=O)NC(=O)CNS(=O)(=O)c1cccc3c(N(C)C)cccc13)C(C)C)[C@@H](O)[C@H](O)[C@@H]2C (stereo not given in full)	Kd [2]: 0.37 µM
–	CN(CCCCCl)P(=O)(OCc1ccc([N+](=O)[O-])o1)C(F)(F)C[C@H](NC(=O)CNC(=O)c1ccc(N)cc1)C(=O)NCCc1ccc(O)cc1 (stereo not given in full)	IC50 (DG-75): 5 µM
–	CC(C)C[C@H](NC(=O)[C@H](CC(=O)O)NC(=O)[C@]1(C)CCCCCCCCCCCC[C@](C)(NC(=O)CNC(=O)[C@@H](N)CCC(N)=O)C(=O)N[C@@H](CC(C)C)C(=O)N[C@@H](CC(=O)O)C(=O)N[C@@H](C)C(=O)N1)C(=O)N[C@@H](C)C(=O)N[C@@H](CO)C(=O)O	Kd [3]: 0.041 µM
